The results in this text go back to paper PMC9465256, “Discovering monoacylglycerol lipase inhibitors by a combination of fluorogenic substrate assay and activity-based protein profiling” (Frontiers in Pharmacology, 2022).

Assay [1] deals with serine hydrolases labeled by FP-TAMRA in cancer cells. As to the kind of experiment: Competitive ABPP in cancer cell lysates: selectivity / potential targets. It is filed as biochemical. Particulars: 100 µM, FP-TAMRA 500 nM, in-gel analysis. Here is the method:
To identify the potential off-targets of the compounds with anti-cancer activities, ABPP was applied. Cancer cells were seeded in the dishes and were washed with PBS, scraped, centrifugated (3,000 × g, 3 min) and pellets snap frozen in liquid in nitrogen. For ABPP experiments, the cell pellets were lysed by probe sonication (3 × 10 bursts) in PBS, followed by the determination of protein concentration of the intact cell lysate by Qubit assay. Subsequently, 20 µl of the cell lysate (1 mg/ml) was preincubated with 0.5 µl of DMSO (vehicle) or inhibitor (100 μM, finial concentration) for 30 min, followed by the treatment with FP-TAMRA (500 nM, final concentration) for 20 min. The reactions were then quenched by 10 µl sample buffer (×4). The obtained samples were directly loaded and resolved on SDS-PAGE gel (10% acrylamide). The gel-based ABPP results were then scanned and analyzed using a ChemiDoc MP system (Cy3 settings, BioRad).

Assay [2] deals with H1975 cells. The assay can be described thus: Cell viability assay (CCK-8), H1975. Particulars: for IC50: Homo sapiens, NCI-H1975, H1975, 48 h, read-out: Antiproliferation activity (pIC50 ± SEM) H1975 (converted). The format is cell-based. Here is the method:
Various cancer cell lines, including human colon cancer cell line HT-29, ovarian cell line OVCAR-3, melanoma cell line B16-F10, skin squamous cancer cells A431, cervical cancer cells Hela, lung cancer cell lines A549, H1975, and HCC827, were purchased from American type culture collection (ATCC). A431, H1975, B16-F10, OVCAR-3, HT-29, HCC827, Hela, and A549 cells were cultured in Dulbecco’s modified Eagle medium (DMEM, Gibco) containing 10% fetal bovine serum (FBS, Gibco), penicillin (100 U/ml) and streptomycin (100 μg/ml). All cell lines were maintained in a humidified 37°C incubator with 5% CO2. The medium was refreshed every 2–3 days and the cells were passaged at ∼90% confluence by adding the fresh medium, followed by vigorously pipetting the resuspend cells. Of note, the cells were only washed with PBS when a significant number of dead cells were observed.
The antiproliferation activity of the compounds against the cancer cell lines was evaluated using Cell Counting Kit-8. Briefly, cells (∼1,000 per well) in 100 µl of culture medium were plated in a 96-well plate for 24 h and 100 µl of medium with different concentrations of the tested compounds was added to each well for 48 h. Then 10 μl of CCK8 solution (#CK04, Dojindo) was added and incubated at 37°C for 2 h. The absorbance of each well was measured with a plate reader (BioTeck) at 450 nm. Cell viability was calculated as follows: cell viability (%) = [(As-Ab)/(Ac-Ab)] × 100. Among them, As represents the absorbance of experimental wells, Ab represents the absorbance of blank wells and Ac represents the absorbance of control wells. The experiments were repeated at least three times and IC50 values were determined by plotting a log(inhibitor) v. s normalized response (Variable slope) dose–response curve generated using GraphPad Prism software.

In assay [3] the target is T1, human ABHD6 (Homo sapiens, UniProt Q9BV23).
T1 construct: expressed in transfected cells; host or cells: HEK293T (transient transfection; membrane fraction)
T1 sequence (Q9BV23 1-337): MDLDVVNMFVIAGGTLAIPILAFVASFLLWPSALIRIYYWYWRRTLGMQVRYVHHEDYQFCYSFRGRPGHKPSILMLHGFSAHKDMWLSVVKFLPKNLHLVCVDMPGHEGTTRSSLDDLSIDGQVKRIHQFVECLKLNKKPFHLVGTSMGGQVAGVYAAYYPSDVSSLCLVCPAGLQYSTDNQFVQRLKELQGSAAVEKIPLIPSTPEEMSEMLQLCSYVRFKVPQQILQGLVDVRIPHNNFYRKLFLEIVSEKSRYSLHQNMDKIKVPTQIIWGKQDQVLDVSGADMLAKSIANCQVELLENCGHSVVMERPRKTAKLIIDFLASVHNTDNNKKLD
As to the kind of experiment: ABHD6 activity assay (AA-HNA fluorogenic substrate). The format is biochemical. The method, boiled down:
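Membranes from HEK293T cells transiently overexpressing human ABHD6 (50 μg/ml final) were preincubated 30 min with inhibitor in 40 mM HEPES pH 7.5, 0.1 mg/ml BSA, 5% DMSO. Hydrolysis of 200 µM AA-HNA was followed by fluorescence for 30 min, activity taken as the 5–15 min slope.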

Where [4] appears, read: 100 µM, AA-HNA substrate assay, Supplementary Table 2, read-out: ABHD6 Inhibition (%).

Molecules are shown by their SMILES.

Turning to `Cl.N=c1ccn2c(n1)O[C@H]1[C@H](O)[C@@H](CO)O[C@H]12` [compound 1, Cyclocytidine HCl], the “selectivity / potential targets among serine hydrolases in cancer cells” value in assay [1] was “No potential target was found”. The “Antiproliferation activity (pIC50 ± SEM) H1975” value in assay [2] (H1975, 48 h) is reported as less than 5. Moreover, the activity in assay [3] (setting [4]) was 89.8%.

Consider `O=c1cc(-c2ccc(O)cc2)oc2cc(O)cc(O)c12` [compound 9, Apigenin], for which the IC50 in assay [2] is greater than 10 µM. The activity at 100 µM in assay [3] (setting [4]) was 88.9%.

For the compound `COc1ccc2cc3[n+](cc2c1OC)CCc1cc2c(cc1-3)OCO2` [compound 17, Berberine chloride], the “selectivity / potential targets among serine hydrolases in cancer cells” value in assay [1] was “No potential target was found”. Besides, the IC50 in assay [2] is greater than 10 µM. In addition, the activity at 100 µM in assay [3] (setting [4]) turned out to be 112%.

In general, inhibition refers to the share of the control response that was lost under treatment. Take `C[C@H]1COC2=C1C(=O)C(=O)c1c2ccc2c1CCCC2(C)C` [compound 23, Cryptotanshinone]: in assay [1], the “selectivity / potential targets among serine hydrolases in cancer cells” value is on record as “broad-spectrum inhibitor by targeting a number of serine hydrolases in cancer cells”. In addition, in assay [2], the IC50 is 10 µM. Also, the activity at 100 µM in assay [3] (setting [4]) was determined as 62.5%. Also, the inhibition at 100 µM in assay [3] (recombinant human ABHD6, 100 µM compound) was less than 50%. Also, in assay [3] (recombinant human ABHD6, 100 µM compound, 100 µM), the “ABHD6 inhibition (%)” value is 37%.

In the case of `COc1ccc(C(C)=O)c(O)c1` [compound 64, Paeonol], the “selectivity / potential targets among serine hydrolases in cancer cells” value in assay [1] is listed as “No potential target was found”. Further, the IC50 in assay [2] is greater than 10 µM. Also, the activity at 100 µM in assay [3] (setting [4]) was determined as 96.2%.
